Data taken from paper PMC4594923, “Food Polyphenols Fail to Cause a Biologically Relevant Reduction of COX-2 Activity” (PLoS ONE, 2015).
Marks after values point to notes of the source that are not given here.

Legend:
[1] = system: arachidonic acid (AA) cascade; test: liver tissue oxylipin/PG levels in LPS induced sepsis in mice; type: in vivo, C57BL/6N mice; settings: liver tissue 24 h after LPS treatment;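 note: male C57BL/6N mice pretreated i.p. with polyphenols at 100 mg/kg bw or vehicle before LPS, liver oxylipins measured by LC-MS after solid-phase extraction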
Source text: Twelve week old male C57BL/6N mice (Charles River, Sulzfeld, Germany) were used for all experiments. C57BL/6 male mice (H2^b, 11–13 weeks of age) were obtained from Charles River (Sulzfeld, Germany). Animals were cared for in accordance with the institution’s guidelines for experimental animals and with the guidelines of the American Physiological Society. […] Mice were monitored closely and if they appeared compromised (i.e. inactivity, no intake of food or water) after compound or LPS injection the experiment was terminated.
Oxylipin levels were analyzed in plasma and tissues by LC-MS following SPE extraction of 200 μl plasma or tissue homogenate (50 mg) on Chromabond C18 ec cartridges (Machery-Nagel, Düren, Germany) [19].
GraphPad Prism 5.0 (GraphPad Software, San Diego, USA) was used for data analysis, the fitting of dose response curves and calculation of the IC50 values. Statistical differences were determined by Dunnetts test (LPS vs. other groups).

[2] = system: arachidonic acid (AA) cascade; test: plasma oxylipin/PG levels in LPS induced sepsis in mice; type: in vivo, C57BL/6N mice;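 note: male C57BL/6N mice given LPS, plasma oxylipins quantified by LC-MS after solid-phase extraction, pretreatment or vehicle given intraperitoneally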
[3] = mice, compound i. p. 100 mg/kg bw 2 h before LPS (10 mg/kg bw i. p.), 24 h after LPS, vs. LPS group
[4] = plasma 24 h after LPS treatment, LPS +, mean

## Oc1ccc(/C=C/c2cc(O)cc3c2[C@@H](c2cc(O)cc(O)c2)[C@H](c2ccc(O)cc2)O3)cc1 [ε-Viniferin, ε-viniferin]
[1]; mean
  4,5-DiHDPE concentration: 20 nM
  4-HDHA concentration: 6.8 nM
  5(6)-EpETrE concentration: 45 nM
  5,6-DiHETE concentration: < 0.30 nM
  5,6-DiHETrE concentration: 1.9 nM
  5-HEPE concentration: 1.2 nM
  5-HETE concentration: 1.2 nM
  5-iPF2α concentration: 2.3^‡ nM
  5-oxo-ETE concentration: 14 nM
  6-keto-PGF1α concentration: 29 nM
  7,8-DiHDPE concentration: 1.9 nM
  7-HDHA concentration: 1.7 nM
  8(9)-EpETE concentration: 1.5 nM
  8(9)-EpETrE concentration: 9.8 nM
  8,9-DiHETE concentration: 1.2 nM
  8,9-DiHETrE concentration: 4.4 nM
  8,15-DiHETE concentration: < 0.80 nM
  8-HDHA concentration: 9.0 nM
  8-HEPE concentration: < 0.60 nM
  8-HETE concentration: 4.2 nM
  8-iPF2α concentration: < 0.10 nM
  9(10)-EpODE concentration: 9.2 nM
  9(10)-EpOME concentration: 84 nM
  9(10)-Epoxystearic acid concentration: 66 nM
  9,10,13-TriHOME concentration: 16 nM
  9,10-DiHODE concentration: 3.9 nM
  9,10-DiHOME concentration: 43^* nM
  9,10-Dihydroxystearic acid concentration: 170 nM
  9,12,13-TriHOME concentration: 110 nM
  9-HETE concentration: 2.9 nM
  9-HODE concentration: 250 nM
  9-HOTrE concentration: 5.0 nM
  9-oxo-ODE concentration: 53 nM
  10(11)-EpDPE concentration: 15 nM
  10,11-DiHDPE concentration: 2.2^† nM
  10-HDHA concentration: 2.2 nM
  11(12)-EpETE concentration: 2.0 nM
  11(12)-EpETrE concentration: 27 nM
  11,12-DiHETE concentration: 1.0^* nM
  11,12-DiHETrE concentration: 5.5^† nM
  11-HDHA concentration: 2.8 nM
  11-HETE concentration: 7.0 nM
  12(13)-EpODE concentration: 3.9 nM
  12(13)-EpOME concentration: 72 nM
  12,13-DiHODE concentration: < 2.0 nM
  12,13-DiHOME concentration: 45^‡ nM
  12-HEPE concentration: 6.8 nM
  12-HETE concentration: 32 nM
  13(14)-EpDPE concentration: 12 nM
  13,14-DiHDPE concentration: 1.6^‡ nM
  13,14-dihydro-15-keto-PGE1 concentration: 0.62 nM
  13,14-dihydro-15-keto-PGF2α concentration: 7.0 nM
  13-HDHA concentration: 3.8 nM
  13-HODE concentration: 230 nM
  13-HOTrE concentration: 8.5 nM
  13-oxo-ODE concentration: 9.4 nM
  14(15)-EpETE concentration: 1.8 nM
  14(15)-EpETrE concentration: 21 nM
  14,15-DiHETE concentration: 2.1^‡ nM
  14,15-DiHETrE concentration: 12^‡ nM
  14-HDHA concentration: 18 nM
  15(16)-EpODE concentration: 12 nM
  15(S)-HETrE concentration: 5.2 nM
  15,16-DiHODE concentration: 17^† nM
  15-HEPE concentration: 1.7 nM
  15-HETE concentration: 14 nM
  15-oxo-ETE concentration: 2.8 nM
  16(17)-EpDPE concentration: 11 nM
  16,17-DiHDPE concentration: 3.0^‡ nM
  16-HDHA concentration: 2.4 nM
  17(18)-EpETE concentration: 3.2 nM
  17,18-DiHETE concentration: 5.6^‡ nM
  17-HDHA concentration: 9.0 nM
  18-HEPE concentration: 1.6 nM
  19(20)-EpDPE concentration: 17 nM
  19,20-DiHDPE concentration: 17^‡ nM
  20-HDHA concentration: 9.1^* nM
  20-HEPE concentration: 4.1^‡ nM
  20-HETE concentration: < 2.6 nM
  EKODE concentration: 34 nM
  PGD1 concentration: 0.91 nM
  PGD2 concentration: 13 nM
  PGE1 concentration: 0.88 nM
  PGE2 concentration: 4.2 nM
  PGF1α concentration: 2.5 nM
  TXB2 concentration: 8.4 nM
  TxB3 concentration: < 0.05 nM
  dihomo-PGF2α concentration: 1.0 nM
[1]; mean (first listing, r6)
  PGF2α concentration: 12 nM
[1]; mean (second listing, r9)
  PGF2α concentration: 12 nM
[2]; [3]
  plasma 8-iPF2α level (non-enzymatically formed autoxidation marker): high levels
  plasma 13,14-dihydro-15-keto-PGE1 level: high levels
  plasma 13,14-dihydro-15-keto-PGF2α level: high levels
  plasma PGF2α level: high levels
[2]; [4]
  1a,1b-dihomo-PGF2α concentration in plasma: 0.42^† nM
  4,5-DiHDPE concentration in plasma: 23^‡ nM
  4-HDHA concentration in plasma: 1.7 nM
  5(6)-EpETrE concentration in plasma: 11 nM
  5,6-DiHETrE concentration in plasma: 1.3^‡ nM
  5-HEPE concentration in plasma: 0.25^* nM
  5-HETE concentration in plasma: 2.8 nM
  5-iPF2α concentration in plasma: 0.91^‡ nM
  5-oxo-ETE concentration in plasma: 4.7 nM
  6-keto-PGF1α concentration in plasma: 2.8 nM
  7,8-DiHDPE concentration in plasma: 1.1 nM
  7-HDHA concentration in plasma: 0.55 nM
  8(9)-EpETrE concentration in plasma: 2.5 nM
  8,9-DiHETrE concentration in plasma: 2.5 nM
  8-HDHA concentration in plasma: 3.8 nM
  8-HEPE concentration in plasma: 1.2^† nM
  8-HETE concentration in plasma: 12^* nM
  8-iPF2a concentration in plasma: 0.30^* nM
  9(10)-EpODE concentration in plasma: 6.5 nM
  9(10)-EpOME concentration in plasma: 61 nM
  9(10)-Epoxystearic acid concentration in plasma: 37 nM
  9,10,13-TriHOME concentration in plasma: 2.2 nM
  9,10-DiHODE concentration in plasma: 4.5 nM
  9,10-DiHOME concentration in plasma: 30 nM
  9,10-Dihydroxystearic acid concentration in plasma: 10 nM
  9,12,13-TriHOME concentration in plasma: 17 nM
  9-HODE concentration in plasma: 210 nM
  9-HOTrE concentration in plasma: 12 nM
  9-oxo-ODE concentration in plasma: 38 nM
  10(11)-EpDPE concentration in plasma: 3.9 nM
  10,11-DiHDPE concentration in plasma: 0.62^* nM
  10-HDHA concentration in plasma: 27^† nM
  11(12)-EpETrE concentration in plasma: 2.6 nM
  11,12-DiHETE concentration in plasma: 0.38^‡ nM
  11,12-DiHETrE concentration in plasma: 2.0 nM
  11-HDHA concentration in plasma: 0.91 nM
  11-HETE concentration in plasma: 3.8^* nM
  12(13)-EpODE concentration in plasma: 3.3 nM
  12(13)-EpOME concentration in plasma: 48 nM
  12,13-DiHODE concentration in plasma: 2.8 nM
  12,13-DiHOME concentration in plasma: 110^* nM
  12-HEPE concentration in plasma: 239^† nM
  12-HETE concentration in plasma: 1700^† nM
  13(14)-EpDPE concentration in plasma: 2.9 nM
  13,14-DiHDPE concentration in plasma: 0.55^* nM
  13,14-dihydro-15-keto-PGE1 concentration in plasma: 0.34^† nM
  13,14dihydro-15-keto-PGF2α concentration in plasma: 2.1^‡ nM
  13-HDHA concentration in plasma: 3.9^* nM
  13-HODE concentration in plasma: 540 nM
  13-HOTrE concentration in plasma: 61 nM
  13-oxo-ODE concentration in plasma: 8.3 nM
  14(15)-EpETE concentration in plasma: 0.18^* nM
  14(15)-EpETrE concentration in plasma: 2.4 nM
  14,15-DiHETE concentration in plasma: 0.36 nM
  14,15-DiHETrE concentration in plasma: 2.5 nM
  14-HDHA concentration in plasma: 800^† nM
  15(16)-EpODE concentration in plasma: 2.9 nM
  15(S)-HETrE concentration in plasma: 5.7^‡ nM
  15,16-DiHODE concentration in plasma: 53 nM
  15-HEPE concentration in plasma: 1.5^‡ nM
  15-HETE concentration in plasma: 7.9^† nM
  15-oxo-ETE concentration in plasma: 0.34 nM
  16(17)-EpDPE concentration in plasma: 2.8 nM
  16,17-DiHDPE concentration in plasma: 1.1^† nM
  16-HDHA concentration in plasma: 1.1 nM
  17(18)-EpETE concentration in plasma: 1.1 nM
  17,18-DiHETE concentration in plasma: 1.8 nM
  17-HDHA concentration in plasma: 39^† nM
  18-HEPE concentration in plasma: 0.81 nM
  19(20)-EpDPE concentration in plasma: 13 nM
  19,20-DiHDPE concentration in plasma: 14 nM
  20-HDHA concentration in plasma: 3.6 nM
  20-HEPE concentration in plasma: 5.7^† nM
  20-HETE concentration in plasma: 2.7^‡ nM
  EKODE concentration in plasma: 16 nM
  PGD2 concentration in plasma: 0.90 nM
  PGE2 concentration in plasma: 1.6 nM
  PGF1α concentration in plasma: 0.25^‡ nM
  PGF2α concentration in plasma: 0.77^‡ nM
  TXB2 concentration in plasma: 4.2 nM
